Data reported in the NIST ThermoML archive (doi:10.1016/j.jct.2013.04.010).
Values joined by “and” are separate entries in the source; they are usually repeats but may differ in a detail not shown here. Equal entries are not always repeated.

Conditions: Liquid, Other PVT measurement

CCCCC(CC)COC(=O)c1ccccc1C(=O)OCC(CC)CCCC (stereo not given) [bis(2-ethylhexyl) 1,2-benzenedicarboxylate]
Conditions | mass density
373.29 K, 3800 kPa | 921 kg/m3
373.29 K, 7600 kPa | 924 kg/m3
373.29 K, 12200 kPa | 928 kg/m3
373.29 K, 15900 kPa | 931 kg/m3
373.29 K, 18100 kPa | 933 kg/m3
373.29 K, 22300 kPa | 936 kg/m3
373.29 K, 28300 kPa | 940 kg/m3
373.29 K, 34800 kPa | 945 kg/m3
373.29 K, 42200 kPa | 950 kg/m3
373.29 K, 48900 kPa | 954 kg/m3
373.29 K, 56100 kPa | 959 kg/m3
373.29 K, 69500 kPa | 967 kg/m3
373.29 K, 83700 kPa | 974 kg/m3
373.29 K, 104200 kPa | 984 kg/m3
373.29 K, 125400 kPa | 994 kg/m3
373.29 K, 138900 kPa | 1001 kg/m3
373.29 K, 152900 kPa | 1007 kg/m3
373.29 K, 174400 kPa | 1015 kg/m3
373.29 K, 208300 kPa | 1029 kg/m3
373.29 K, 240000 kPa | 1041 kg/m3
373.29 K, 262100 kPa | 1046 kg/m3
423.53 K, 4200 kPa | 878 kg/m3
423.53 K, 7900 kPa | 885 kg/m3
423.53 K, 11100 kPa | 890 kg/m3
423.53 K, 14500 kPa | 895 kg/m3
423.53 K, 18000 kPa | 898 kg/m3
423.53 K, 21200 kPa | 901 kg/m3
423.53 K, 27800 kPa | 908 kg/m3
423.53 K, 35200 kPa | 914 kg/m3
423.53 K, 42100 kPa | 918 kg/m3
423.53 K, 49200 kPa | 924 kg/m3
423.53 K, 55700 kPa | 930 kg/m3
423.53 K, 70700 kPa | 939 kg/m3
423.53 K, 83700 kPa | 948 kg/m3
423.53 K, 104200 kPa | 960 kg/m3
423.53 K, 125400 kPa | 970 kg/m3
423.53 K, 139900 kPa | 977 kg/m3
423.53 K, 153700 kPa | 983 kg/m3
423.53 K, 173400 kPa | 992 kg/m3
423.53 K, 207100 kPa | 1006 kg/m3
423.53 K, 239400 kPa | 1018 kg/m3
423.53 K, 263800 kPa | 1028 kg/m3
476.2 K, 5500 kPa | 847 kg/m3
476.2 K, 9400 kPa | 853 kg/m3
476.2 K, 9500 kPa | 853 kg/m3
476.2 K, 15200 kPa | 861 kg/m3
476.2 K, 15700 kPa | 861 kg/m3
476.2 K, 26800 kPa | 874 kg/m3
476.2 K, 27300 kPa | 874 kg/m3
476.2 K, 27500 kPa | 874 kg/m3
476.2 K, 46700 kPa | 894 kg/m3
476.2 K, 46900 kPa | 894 kg/m3
476.2 K, 59800 kPa | 905 kg/m3
476.2 K, 70700 kPa | 914 kg/m3
476.2 K, 71500 kPa | 913 kg/m3
476.2 K, 95700 kPa | 931 kg/m3
476.2 K, 96400 kPa | 931 kg/m3
476.2 K, 114200 kPa | 942 kg/m3
476.2 K, 114800 kPa | 942 kg/m3
476.2 K, 139800 kPa | 959 kg/m3
476.2 K, 140400 kPa | 958 kg/m3
476.2 K, 176200 kPa | 975 kg/m3
476.2 K, 206900 kPa | 990 kg/m3
476.2 K, 240200 kPa | 1002 kg/m3
476.2 K, 269000 kPa | 1013 kg/m3
491.86 K, 3900 kPa | 830 kg/m3 and 831 kg/m3
491.86 K, 4100 kPa | 830 kg/m3
491.86 K, 9900 kPa | 840 kg/m3
491.86 K, 10500 kPa | 839 kg/m3
491.86 K, 22800 kPa | 856 kg/m3
491.86 K, 23300 kPa | 856 kg/m3
491.86 K, 37200 kPa | 870 kg/m3
491.86 K, 37500 kPa | 870 kg/m3
491.86 K, 50700 kPa | 886 kg/m3
491.86 K, 51100 kPa | 885 kg/m3
491.86 K, 71500 kPa | 902 kg/m3
491.86 K, 71900 kPa | 902 kg/m3
491.86 K, 94800 kPa | 918 kg/m3
491.86 K, 95000 kPa | 918 kg/m3
491.86 K, 121700 kPa | 934 kg/m3
491.86 K, 121800 kPa | 934 kg/m3
491.86 K, 145400 kPa | 948 kg/m3
491.86 K, 145600 kPa | 948 kg/m3
491.86 K, 177200 kPa | 964 kg/m3
491.86 K, 177400 kPa | 964 kg/m3
491.86 K, 204300 kPa | 977 kg/m3
491.86 K, 206000 kPa | 978 kg/m3
491.86 K, 229400 kPa | 989 kg/m3
491.86 K, 230800 kPa | 988 kg/m3
491.86 K, 253700 kPa | 998 kg/m3
491.86 K, 258100 kPa | 1000 kg/m3
523.6 K, 5700 kPa | 811 kg/m3
523.6 K, 9200 kPa | 817 kg/m3
523.6 K, 16100 kPa | 827 kg/m3
523.6 K, 21600 kPa | 835 kg/m3
523.6 K, 27300 kPa | 842 kg/m3
523.6 K, 27500 kPa | 842 kg/m3
523.6 K, 35500 kPa | 851 kg/m3
523.6 K, 35700 kPa | 851 kg/m3
523.6 K, 44200 kPa | 860 kg/m3
523.6 K, 44300 kPa | 860 kg/m3
523.6 K, 44400 kPa | 860 kg/m3
523.6 K, 44600 kPa | 860 kg/m3
523.6 K, 55800 kPa | 871 kg/m3
523.6 K, 56300 kPa | 871 kg/m3
523.6 K, 68500 kPa | 882 kg/m3
523.6 K, 68900 kPa | 882 kg/m3
523.6 K, 82200 kPa | 893 kg/m3
523.6 K, 82500 kPa | 892 kg/m3
523.6 K, 97000 kPa | 903 kg/m3
523.6 K, 97300 kPa | 903 kg/m3
523.6 K, 117000 kPa | 916 kg/m3
523.6 K, 117400 kPa | 916 kg/m3
523.6 K, 117700 kPa | 916 kg/m3
523.6 K, 155700 kPa | 939 kg/m3
523.6 K, 156100 kPa | 939 kg/m3
523.6 K, 181200 kPa | 952 kg/m3
523.6 K, 181500 kPa | 952 kg/m3
523.6 K, 209500 kPa | 964 kg/m3
523.6 K, 209900 kPa | 964 kg/m3
523.6 K, 233900 kPa | 974 kg/m3
523.6 K, 234000 kPa | 974 kg/m3
523.6 K, 253400 kPa | 983 kg/m3
523.6 K, 253600 kPa | 983 kg/m3
523.6 K, 263500 kPa | 987 kg/m3
